Test results published in PMC6279831, “Reconstructing the evolutionary history of F420-dependent dehydrogenases” (Scientific Reports, 2018).

What was measured:
AncD1 [1] = system: AncD1; parameters: steady-state kinetics with 20 uM F420, absorbance decrease at 400 nm, pH 7.5, 25 °C; conditions: 20 uM F420, pH 7.5, 25 °C; substrate
Description: Sugars (phosphorylated as well as non-phosphorylated) and alcohols were tested as substrates. D-glucose-6-phosphate (G6P) was used as a prototype substrate to initially verify activity. Other 6-phosphorylated sugars tested were: D-fructose-6-phosphate, D-mannose-6-phosphate and D-glucosamine-6-phosphate. D-glucose, D-fructose, D-mannose, D-xylose, D-galactose-1-phosphate, D-glucose-1-phosphate, isopropanol, isobutanol, butanol and cyclohexanol were also tested for activity. Kinetics of all enzymes was measured in a Synergy MX microplate reader (BioTek) using 96-well F-bottom plates (Greiner Bio-One GmbH) at 25 °C. Assays were performed in a volume of 200 µL, containing 20 µM F420, 50–100 nM of enzyme and varying concentrations of the substrates in buffer (50 mM KPi, pH 7.5). Reaction was started by adding 100 µL of enzyme. All measurements were followed at λ = 400 nm for 3 min. The observed rates (kobs) were calculated by using a molecular extinction coefficient of ε400 (F420) = 25.7 mM^−1cm^−1. All experiments were repeated three times.

FGD-Cryar (FSD-Cryar) = target: T1, FGD-Cryar (FSD-Cryar) (Cryptosporangium arvum, UniProt A0A010YY07); assay: fluorescence quenching of FMN (ex […] nm, em […] nm), one-site fit; format: binding; conditions: read-out: FGD-Noca (FSD-Noca) / kcat [s^-1]
T1 construct: gene CryarDRAFT_1153

AncD1 [2] = assay: as above; format: binding; conditions: 0.1 µM cofactor, 25 °C; apparent KD; read-out: FGD-Noca (FSD-Noca) / kcat [s^-1]
FGD-Noca (FSD-Noca) = target: T2, FGD-Noca (FSD-Noca) (Nocardioidaceae bacterium Broad-1, UniProt E9V3D1); assay: as above; format: binding; conditions: read-out: FGD-Noca (FSD-Noca) / kcat [s^-1]
T2 construct: full-length, codon-optimised, expressed in E. coli TOP10 (pBAD) as native protein, no SUMO; purified by anion exchange

O=P(O)(O)OC[C@H]1OC(O)[C@@H](O)[C@@H](O)[C@@H]1O (stereo partly drawn) [D-mannose-6-phosphate]
Km (AncD1 [1]): 7.2 ± 4.7 mM

O=P(O)(O)OC[C@H]1OC(O)(CO)[C@@H](O)[C@@H]1O (stereo partly drawn) [D-fructose-6-phosphate]
Km (AncD1 [1]): 45 ± 15 mM

Cc1cc2nc3c(=O)[nH]c(=O)nc-3n(C[C@H](O)[C@H](O)[C@H](O)COP(=O)(O)O)c2cc1C [FMN]
Kd (FGD-Cryar (FSD-Cryar)): > 150 µM | Kd (AncD1 [2]): > 150 µM | Kd (FGD-Noca (FSD-Noca)): > 150 µM

O=P(O)(O)OC[C@H]1OC(O)[C@H](O)[C@@H](O)[C@@H]1O (stereo partly drawn) [D-glucose-6-phosphate]
Km (AncD1 [1]): 1 ± 0.19 mM
